The text below walks through data of patent US11578055B2, “Triazacyclododecansulfonamide (“TCD”)-based protein secretion inhibitors” (KEZAR LIFE SCIENCES, priority 2018, dated 2023).

The nature of data set [1]: In Vitro Microsome Stability Assay (mouse). In kind it is in vitro ADME. Summed up: (§1)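 Test article, added from a 0.25 mM DMSO stock, was incubated with liver microsomes (20 mg/mL stock) in 0.1 M potassium phosphate at 37° C, with the reaction started by NADPH. Samples were quenched with acetonitrile containing internal standard at 0 and 30 min and analysed by LC-MS/MS. Values are % remaining at 30 min versus 0 min, using IS-normalised AUC ratios.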

Data set [2] can be described thus: In Vitro Microsome Stability Assay (monkey). The class given is in vitro ADME. An outline of the steps: as §1
Data set [3] in a line: In Vitro Microsome Stability Assay (rat). In kind it is in vitro ADME. An outline of the steps: as §1
A short description of data set [4]: In Vitro Microsome Stability Assay (human). The class given is in vitro ADME. Summed up: as §1
Data set [5] has as its system multiple myeloma cell line U266B1. Briefly: U266 Cell Viability Assay. As to conditions: Homo sapiens, U-266, 48 hr. The class given is cell-based, human. An outline of the steps:
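Viability was measured by CellTiter-Glo luminescence after 48 h compound exposure at 37° C, 5% CO2. The cells were U266B1 multiple myeloma cells grown in RPMI 1640 plus 10% FBS. Where stereochemistry is not shown, values apply to the stereoisomer mixture.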

Data set [6] concerns PD1 signal sequence plus 10 amino acids fused to Gaussia Luciferase (PD1-ss+10aa/Gaussia Luciferase). Description: Dox Induced PD1-ss-Gluc Assay. The class given is cell-based. As to conditions: 24 hr, read-out: 24 hr Dox Inducible PD1ssGluc 293FRT/TO: Mean IC50. Summed up: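 Compound dilutions in DMSO/media containing doxycycline were applied to a stable, inducible 293 T-REx line carrying the luciferase fusion, then incubated at 37 °C, 5% CO2. Where stereochemistry is not drawn, values relate to isomer mixtures.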

For data set [7], the system named is full length TNFα (amino acids 1-233) fused to Gaussia Luciferase. Description: Dox Induced TNFα-FL-Gluc Assay. As to conditions: 24 hr, read-out: 24 hr Dox Inducible TNFaFLGluc 293FRT/TO: Mean IC50. The class given is cell-based. An outline of the steps:
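Compounds diluted in DMSO/medium with doxycycline were incubated at 37° C, 5% CO2 with 293 T-REx cells stably carrying a Tet-regulated TNFα(1-233)-Gaussia luciferase construct. Data for structures drawn without stereochemistry refer to stereoisomer mixtures.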

Data set [8] deals with multiple myeloma cell line NCl-H929. Briefly: H929 Cell Viability Assay. In kind it is cell-based, human. As to conditions: Homo sapiens, NCI-H929, 48 h. An outline of the steps:
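Viability was determined by CellTiter-Glo luminescence after a 48 h, 37 °C exposure of NCI-H929 cells to serial compound dilutions in medium containing 10% FBS. Where stereochemistry is not shown, values refer to a mix of stereoisomers.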

The subject of data set [9] is full length IL-2 (amino acids 1-153) fused to Gaussia Luciferase. Description: Dox Induced IL2-FL-Gluc Assay. The class given is cell-based. As to conditions: 24 hr, read-out: 24 hr Dox Inducible IL2FLGluc 293FRT/TO: Mean IC50. Summed up: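 Compounds in DMSO/media with doxycycline were added to cells plated the previous day and incubated at 37° C, 5% CO2. Cells: stable Flp-In 293 T-REx line, Dox-regulated expression of IL-2 (aa 1-153) fused at its C-terminus to Gaussia luciferase.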

Where [10] appears, read: mouse liver microsomes, 30 min w/ NADPH.
[11] abbreviates: monkey liver microsomes, 30 min w/ NADPH.
The mark [12] stands for this setting: rat liver microsomes, 30 min w/ NADPH.
Setting [13] is: human liver microsomes, 30 min w/ NADPH.
Setting [14] is: U266, read-out: 48 hr U266 Viability Celltiter-Glo: Mean EC50.
[15] abbreviates: H929, read-out: 48 hr H929 Viability Celltiter-Glo: Mean EC50.

Like-named read-outs stand apart in the source and are kept apart here.

As to `CCc1ccc2c(c1)CCN(S(=O)(=O)N1CCCN(CC3CCCCC3)CCCN(S(=O)(=O)c3ccc(N(C)C)cc3)C[C@H](C)C1)C2` [A136, 4-{[(3S)-9-(cyclohexylmethyl)-5-[(6-ethyl-1,2,3,4-tetrahydroisoquinolin-2-yl)sulfonyl]-3-methyl-1,5,9-triazacyclododecan-1-yl]sulfonyl}-N,N-dimethylaniline], the “Liver Microsome Stability-% Left after 30 min w/ NADPH (%) Mouse” value (shortened to “Liver Microsome Stability-% Left … (%) Mouse”) in [1] (setting [10]) worked out at 14.3%. The “Liver Microsome Stability-% Left after 30 min w/ NADPH (%) Monkey” value (“Liver Microsome Stability-% Left … (%) Monkey” for short) in data set [2] (setting [11]) came out at 23.2%. The “Liver Microsome Stability-% Left after 30 min w/ NADPH (%) Rat” value (“Liver Microsome Stability-% Left … (%) Rat” for short) in data set [3] (setting [12]) came out at 26.6%. In addition, in data set [4] (setting [13]), the “Liver Microsome Stability-% Left after 30 min w/ NADPH (%) Human” value (from here on “Liver Microsome Stability-% Left … (%) Human”) stood at 65.3%. In addition, the EC50 in [5] (U266, Celltiter-Glo) is more than 25000 nM; in data set [8] (H929, Celltiter-Glo) it was 1730 nM. Further, the IC50 in [6] (Dox inducible, 293FRT/TO cells) amounted to 26.5 nM; in data set [7] (Dox inducible, 293FRT/TO cells), 544 nM; in data set [9] (Dox inducible, 293FRT/TO cells), 101 nM.

For the compound `Cc1ccccc1N1CCN(S(=O)(=O)N2CCCN(CC3CCCCC3)CCCN(S(=O)(=O)c3ccc(N(C)C)cc3)C[C@H](C)C2)CC1` [A97, 4-{[(3S)-9-(cyclohexylmethyl)-3-methyl-5-{[4-(2-methylphenyl)piperazin-1-yl]sulfonyl}-1,5,9-triazacyclododecan-1-yl]sulfonyl}-N,N-dimethylaniline], the “Liver Microsome Stability-% Left … (%) Mouse” value in [1] (mouse, 30 min, NADPH) turned out to be 77.7%. In addition, the “Liver Microsome Stability-% Left … (%) Monkey” value in data set [2] (monkey, 30 min, NADPH) amounted to 66.1%. Moreover, the “Liver Microsome Stability-% Left … (%) Rat” value in data set [3] (rat, 30 min, NADPH) is listed as 71.4%. Moreover, in [4] (human, 30 min, NADPH), the “Liver Microsome Stability-% Left … (%) Human” value was 71.1%. For the same compound, the EC50 was more than 25000 nM in data set [5] (setting [14]) and 726 nM in data set [8] (setting [15]). Besides, the results for the IC50 in [6] (293FRT/TO), in data set [7] (293FRT/TO) and in [9] (293FRT/TO) were 41.8 nM, 566 nM and 87 nM, respectively.

As for `C[C@H]1CN(S(=O)(=O)c2ccc(N(C)C)cc2)CCCN(CC2=CCCCC2)CCCN(S(=O)(=O)N2CCc3cc(Cl)ccc3C2)C1` [A135, 4-{[(3S)-5-[(6-chloro-1,2,3,4-tetrahydroisoquinolin-2-yl)sulfonyl]-9-[(cyclohex-1-en-1-yl)methyl]-3-methyl-1,5,9-triazacyclododecan-1-yl]sulfonyl}-N,N-dimethylaniline], the “Liver Microsome Stability-% Left … (%) Mouse” value in data set [1] (setting [10]) worked out at 26.1%. Also, the “Liver Microsome Stability-% Left … (%) Monkey” value in data set [2] (setting [11]) was 39.2%. Besides, in data set [3] (setting [12]), the “Liver Microsome Stability-% Left … (%) Rat” value turned out to be 56.3%. In addition, the “Liver Microsome Stability-% Left … (%) Human” value in [4] (setting [13]) turned out to be 9.36%. In addition, the EC50 in [5] (U266, Celltiter-Glo) was more than 25000 nM; in data set [8] (H929, Celltiter-Glo), 1240 nM. For the same compound, the IC50 came out at 21.6 nM in data set [6] (Dox inducible, 293FRT/TO cells); 625 nM in data set [7] (Dox inducible, 293FRT/TO cells); 48.6 nM in [9] (Dox inducible, 293FRT/TO cells).

For the compound `C[C@H]1CN(S(=O)(=O)c2ccc(N(C)C)cc2)CCCN(CC2CCCCC2)CCCN(S(=O)(=O)N2CCN(c3ccccc3C#N)CC2)C1` [A118, 2-(4-{[(3S)-9-(cyclohexylmethyl)-5-[4-(dimethylamino)benzenesulfonyl]-3-methyl-1,5,9-triazacyclododecan-1-yl]sulfonyl}piperazin-1-yl)benzonitrile], the “Liver Microsome Stability-% Left … (%) Mouse” value in [1] (setting [10]) is listed as 22.1%. Also, the “Liver Microsome Stability-% Left … (%) Monkey” value in data set [2] (setting [11]) came to 14.7%. Besides, the “Liver Microsome Stability-% Left … (%) Rat” value in data set [3] (setting [12]) was 18.3%. Further, in [4] (setting [13]), the “Liver Microsome Stability-% Left … (%) Human” value was 14.2%. Further, the concentration for a half-maximal effect (EC50) in [5] (U266, Celltiter-Glo) was more than 25000 nM; in [8] (H929, Celltiter-Glo), 5350 nM. Further, the IC50 stood at 67.8 nM in data set [6] (Dox inducible, 293FRT/TO cells); 2090 nM in data set [7] (Dox inducible, 293FRT/TO cells); 173 nM in [9] (Dox inducible, 293FRT/TO cells).

In the case of `C[C@H]1CCN(S(=O)(=O)N2CCc3cc(Cl)ccc3C2)CCCN(CC2CCCCC2)CCCN1S(=O)(=O)c1ccc(N(C)C)cc1` [A150, 4-{[(2 S)-5-[(6-chloro-1,2,3,4-tetrahydroisoquinolin-2-yl)sulfonyl]-9-(cyclohexylmethyl)-2-methyl-1,5,9-triazacyclododecan-1-yl]sulfonyl}-N,N-dimethylaniline], in data set [1] (setting [10]), the “Liver Microsome Stability-% Left … (%) Mouse” value is 1.38%. Further, the “Liver Microsome Stability-% Left … (%) Monkey” value in data set [2] (setting [11]) came to 2.2%. Also, the “Liver Microsome Stability-% Left … (%) Rat” value in [3] (setting [12]) is reported as 2.02%. For the same compound, the “Liver Microsome Stability-% Left … (%) Human” value in [4] (setting [13]) came to 4.6%. The EC50 in [5] (U266, Celltiter-Glo) was more than 25000 nM; in [8] (H929, Celltiter-Glo), 2000 nM. The IC50 in data set [6] (Dox inducible, 293FRT/TO cells) worked out at 30.3 nM; in [7] (Dox inducible, 293FRT/TO cells) it was 468 nM; in data set [9] (Dox inducible, 293FRT/TO cells), 41.3 nM.

On to `C[C@H]1CN(S(=O)(=O)c2ccc(N(C)C)cc2)CCCN(CC2CCCCC2)CCCN(S(=O)(=O)N2CCN(c3ccc(F)cc3)CC2)C1` [A96, 4-{[(3S)-9-(cyclohexylmethyl)-5-{[4-(4-fluorophenyl)piperazin-1-yl]sulfonyl}-3-methyl-1,5,9-triazacyclododecan-1-yl]sulfonyl}-N,N-dimethylaniline], for which, in data set [1] (mouse, 30 min, NADPH), the “Liver Microsome Stability-% Left … (%) Mouse” value is on record as 37.6%. Besides, the “Liver Microsome Stability-% Left … (%) Monkey” value in data set [2] (monkey, 30 min, NADPH) came to 32.8%. The “Liver Microsome Stability-% Left … (%) Rat” value in data set [3] (rat, 30 min, NADPH) is listed as 41.9%. Besides, the “Liver Microsome Stability-% Left … (%) Human” value in [4] (human, 30 min, NADPH) was 40.5%. The EC50 was more than 25000 nM in data set [5] (setting [14]) and 5100 nM in data set [8] (setting [15]). Further, the values for the IC50 in data set [6] (293FRT/TO), in data set [7] (293FRT/TO) and in data set [9] (293FRT/TO) were 122 nM, 1850 nM and 232 nM, respectively.

Regarding `COc1c(F)cccc1N1CCN(S(=O)(=O)N2CCCN(CC3CCCCC3)CCCN(S(=O)(=O)c3ccc(N(C)C)cc3)C[C@H](C)C2)CC1` [A175, 4-{[(3S)-9-(cyclohexylmethyl)-5-{[4-(3-fluoro-2-methoxyphenyl)piperazin-1-yl]sulfonyl}-3-methyl-1,5,9-triazacyclododecan-1-yl]sulfonyl}-N,N-dimethylaniline], the “Liver Microsome Stability-% Left … (%) Mouse” value in [1] (setting [10]) stood at 6.73%. For the same compound, in data set [2] (setting [11]), the “Liver Microsome Stability-% Left … (%) Monkey” value was determined as 2.27%. Further, in data set [3] (setting [12]), the “Liver Microsome Stability-% Left … (%) Rat” value is 6.28%. For the same compound, the “Liver Microsome Stability-% Left … (%) Human” value in [4] (setting [13]) is on record as 4.26%. The EC50 in [5] (U266, Celltiter-Glo) was more than 25000 nM; in data set [8] (H929, Celltiter-Glo) it was 1440 nM. Also, the IC50 in data set [6] (Dox inducible, 293FRT/TO cells) was found to be 9.35 nM; in [7] (Dox inducible, 293FRT/TO cells), 393 nM; in data set [9] (Dox inducible, 293FRT/TO cells), 40.4 nM.

With `C[C@H]1CN(S(=O)(=O)c2cccc(N(C)C)c2)CCCN(CC2CCCCC2)CCCN(S(=O)(=O)N2CCc3cc(Cl)ccc3C2)C1` [A168, 3-{[(3S)-5-[(6-chloro-1,2,3,4-tetrahydroisoquinolin-2-yl)sulfonyl]-9-(cyclohexylmethyl)-3-methyl-1,5,9-triazacyclododecan-1-yl]sulfonyl}-N,N-dimethylaniline], the “Liver Microsome Stability-% Left … (%) Mouse” value in data set [1] (setting [10]) came to 42%. Also, in data set [2] (setting [11]), the “Liver Microsome Stability-% Left … (%) Monkey” value turned out to be 73%. For the same compound, the “Liver Microsome Stability-% Left … (%) Rat” value in [3] (setting [12]) worked out at 42.1%. Besides, the “Liver Microsome Stability-% Left … (%) Human” value in data set [4] (setting [13]) was 25.7%. Also, the EC50 is more than 25000 nM in data set [5] (U266, Celltiter-Glo) and more than 25000 nM in [8] (H929, Celltiter-Glo). In addition, the IC50 in data set [6] (Dox inducible, 293FRT/TO cells) was 1490 nM; in data set [7] (Dox inducible, 293FRT/TO cells) it was more than 25000 nM; in data set [9] (Dox inducible, 293FRT/TO cells) it was 1140 nM.

Broadly, the EC50 is the concentration that produces a half-maximal response.
